Laboratory results taken from patent US7199114B2, “Triterpene quaternary salts as biologically active surfactants” (The Regents of the University of Minnesota, priority 2002, dated 2007).

Assays:
[1] = test system: Enterococcus faecium Vancomycin-sensitive (second listed); assay: Anti-bacterial activity, broth culture MIC; format: cell-based; conditions: Enterococcus faecium, read-out: Approximate Minimum Inhibitory Concentration, MIC
Method: (§1) Several uncharged or negatively charged triterpenes, and several positively charged triterpenes of the invention were tested for anti-bacterial activity against antibiotic-susceptible and antibiotic resistant strains of four types of bacteria of concern in clinics and hospitals. The triterpenes weres tested in broth culture in triplicate for ability to inhibit bacterial growth. The compounds tested are those listed below.
(§2) The lowest concentration which inhibits bacterial growth is referred to as the minimum inhibitory concentration (MIC), the standard measurement of anti-microbial activity.

[2] = test system: Staphylococcus aureus Methicillin-sensitive; assay: Anti-bacterial activity, broth culture MIC; format: cell-based; conditions: Staphylococcus aureus, read-out: Approximate Minimum Inhibitory Concentration, MIC
Method: as §1, §2

[3] = test system: Staphylococcus aureus Methicillin-resistant; assay: Anti-bacterial activity, broth culture MIC; format: cell-based; conditions: Staphylococcus aureus, read-out: Approximate Minimum Inhibitory Concentration, MIC
Method: as §1, §2

[4] = test system: Enterococcus faecium Vancomycin-sensitive (first listed); assay: Anti-bacterial activity, broth culture MIC; format: cell-based; conditions: Enterococcus faecium, read-out: Approximate Minimum Inhibitory Concentration, MIC
Method: as §1, §2

[5] = test system: Eschericia coli Ampicillin-resistant; assay: Anti-bacterial activity, broth culture MIC; format: cell-based; conditions: read-out: Approximate Minimum Inhibitory Concentration, MIC
Method: as §1, §2

dollar spot [6] = assay: Antifungal treatment on turf grass plots (Example 84), dollar spot count; format: in vivo; conditions: Table 3 experiment, 17.8 g/1000 sq. ft. (Daconil Ultrex 3.2 oz./1000 sq. ft.)
Method: (§3) Plots of creeping bentgrass, cv. “Pennlinks,” were treated with water based sprays of the test compounds. Sprays were delivered by CO2-charged sprayer to deliver the equivalent of 2 gallons of spray per 1000 sq. ft of plot area. Plots were 15 sq. ft. each, and treatments were mixed to apply material to 75 sq. ft (5 replicates), although only 4 replicates were treated. The quaternary salts of triterpenes were applied at 17.8 g/1000 sq. ft. for 14 days. Daconil Ultrex® was applied at 3.2 oz./1000 sq. ft. for 14 days. The experiment used a randomized complete block design, with 4 replicates per treatment. Disease pressure was high. Pennlinks […] is moderately to highly susceptible to both dollar spot and brown patch. For brown patch, caused by Rhozoctonia sofani. a visual estimate of the percent of the plot area affected was recorded. Turf quality was estimated on a 1 to 9 scale, with 1 being worst and 9 being perfect. A rating of 6 is considered acceptable.

[7] = Antifungal treatment on turf grass plots (Example 84), turf quality; format: in vivo, creeping bentgrass, cv. Pennlinks; conditions: Table 3 experiment, 1 to 9 scale, 9 perfect, 17.8 g/1000 sq. ft. (Daconil Ultrex 3.2 oz./1000 sq. ft.)
Method: as §3

[8] = test system: brown patch, caused by Rhozoctonia sofani; assay: Antifungal treatment on turf grass plots (Example 84), brown patch; format: in vivo; conditions: Table 3 experiment, 17.8 g/1000 sq. ft. (Daconil Ultrex 3.2 oz./1000 sq. ft.)
Method: as §3

[9] = test system: Escherichia coli Ampicillin sensitive; assay: Anti-bacterial activity, broth culture MIC; format: cell-based; conditions: read-out: Approximate Minimum Inhibitory Concentration, MIC
Method: as §1, §2

[10] = test system: Pseudomonas aeruginosa Multi-drug resistant; assay: Anti-bacterial activity, broth culture MIC; format: cell-based; conditions: read-out: Approximate Minimum Inhibitory Concentration, MIC
Method: as §1, §2

[11] = test system: Pseudomonas aeruginosa Antibiotic sensitive; assay: Anti-bacterial activity, broth culture MIC; format: cell-based; conditions: read-out: Approximate Minimum Inhibitory Concentration, MIC
Method: as §1, §2

dollar spot [12] = assay: Bentgrass dollar spot trial at Rutgers University, lesion count; format: in vivo; conditions: text summary of Table 7
Method: Similar experiments were performed at Rutgers University to test for treatment of bentgrass infected with dollar spot. Test compounds were mixed in aqueous solution with the adjuvant Latron B-1956® (Rohm and Haas) and applied to the grass at a rate of 4.18 fluid ounces per 1000 square feet and an interval of every 7 days. The number of lesions per plot were then counted and averaged over the replicate plots. Treatment with fertilizers or other fungicides were also performed.

[13] = background statement; cited from earlier work

Row | SMILES | MIC [1] [µg/mL] | MIC [2] [µg/mL] | MIC [3] [µg/mL] | MIC [4] [µg/mL] | MIC [5] [µg/mL] | other results
1 | C=C(C)[C@@H]1CCC2(COC(=O)C[n+]3cccc(CNC(N)=O)c3)CC[C@]3(C)C(CCC4[C@@]5(C)CC[C@H](OC(=O)C[n+]6cccc(CNC(N)=O)c6)C(C)(C)C5CC[C@]43C)C12.Cl.Cl (some centres unmarked) |  |  |  |  |  | melting point: 245 to 247 °C (dec.)
2 | Br.C=C(C[n+]1ccc(N(C)C)cc1)[C@@H]1CC[C@]2(COC(C)=O)CC[C@]3(C)C(CCC4[C@@]5(C)CC[C@H](OC(C)=O)C(C)(C)C5CC[C@]43C)C12 (some centres unmarked) [Compound 12, 1-(3,28-(diacetoxy)lup-20(29)-ene-30-yl)4-(dimethylamino)pyridinium bromide] | 2 | 2 | 5 | 2 | 50 | 
3 | C=C(C[N+]12CCN(CC1)CC2)[C@@H]1CC[C@]2(COC(C)=O)CC[C@]3(C)C(CCC4[C@@]5(C)CC[C@H](OC(C)=O)C(C)(C)C5CC[C@]43C)C12.[Br-] (some centres unmarked) [Compound 18, 1-[3,28-(diacetoxy)lup-20(29)-ene-30-yl]-1,4-diazabicyclo[2.2.2]octane bromide] | 5 | 5 | 5 | 5 |  | Dollar Spot # of spots per plot (dollar spot [6]; Jul. 2, 2001): 20.8 spots per plot; Dollar Spot # of spots per plot (dollar spot [6]; Jul. 9, 2001): 14.3 spots per plot; Dollar Spot # of spots per plot (dollar spot [6]; Jul. 16, 2001): 1.8 spots per plot; Dollar Spot # of spots per plot (dollar spot [6]; Jun. 25, 2001): 16.8 spots per plot; Turf quality ([7]; Jul. 2, 2001): 4.63; Turf quality ([7]; Jul. 9, 2001): 5.50; Turf quality ([7]; Jun. 25, 2001): 4.63; Brown Patch % of plot infected ([8]; Jul. 2, 2001): 37.5%; Brown Patch % of plot infected ([8]; Jul. 9, 2001): significantly suppress brown patch; Brown Patch % of plot infected ([8]; Jul. 9, 2001, listed as Comp. 18): 12.0%; Brown Patch % of plot infected ([8]; Jul. 16, 2001): 6.3%; Brown Patch % of plot infected ([8]; Jun. 25, 2001): 14.8%
4 | Br.Br.C=C(C)[C@@H]1CC[C@]2(COC(=O)CCC[N+]34CCN(CC3)CC4)CC[C@]3(C)C(CCC4[C@@]5(C)CC[C@H](OC(=O)CCC[N+]67CCN(CC6)CC7)C(C)(C)C5CC[C@]43C)C12 (some centres unmarked) [Compound 25, Lup-20(29)-ene-3,28-bis[(N-(1,4-diazabicyclo[2.2.21]octyl)4-butyrate)]dibromide] | 10 | 2 | 2 | 5 | 100 | MIC [9]: 50 µg/mL
5 | Br.C=C(C)[C@@H]1CC[C@]2(COC(=O)CCC[n+]3ccc(N(C)C)cc3)CC[C@]3(C)C(CCC4[C@@]5(C)CC[C@H](OC(=O)CCC[n+]6ccc(N(C)C)cc6)C(C)(C)C5CC[C@]43C)C12 (some centres unmarked) [Compound 40, Lup-20(29)-ene3,28-bis [N-(4-dimethylaminopyridinium)4-butyrate] dibromide] | 5 | 5 | 5 | 2 | 50 | MIC [9]: 20 µg/mL; MIC [10]: 200 µg/mL; MIC [11]: 200 µg/mL
6 | CCCCCCCCCC[N+](C)(CCCCCCCCCC)CC(=O)O[C@H]1CC[C@@]2(C)C(CC[C@]3(C)C2CC[C@@H]2C4[C@H]5OC[C@@]4(CCC5(C)C)CC[C@]23C)C1(C)C.[Cl-] (stereo partly drawn) [Compound 80, 3β-[(N-methyl-N,N-didecyl)aminoacetyloxy]-19β,28-epoxy-18α-oleanan chloride] |  |  |  |  |  | effectiveness against dollar spot (dollar spot [12]): particularly effective
7 | C=C(C)[C@@H]1CC[C@]2(CO)CC[C@]3(C)[C@H](CC[C@@H]4[C@@]5(C)CC[C@H](O)C(C)(C)[C@@H]5CC[C@]43C)[C@@H]12 [betulin] |  |  |  |  |  | solubility in water [13]: about 0.15 mg/l
